Laboratory results reported in the supplement of paper PMC10307832.

Tests used:
Assay in all cases: relative viability (nuclei count vs DMSO), 5 days (fraction); higher = more cells survive
Quizartinib + Pemetrexed = compound: CC(C)(C)c1cc(NC(=O)Nc2ccc(-c3cn4c(n3)sc3cc(OCCN5CCOCC5)ccc34)cc2)no1 [Quizartinib] + Nc1nc2[nH]cc(CCc3ccc(C(=O)N[C@@H](CCC(=O)O)C(=O)O)cc3)c2c(=O)[nH]1 [Pemetrexed] (partner 0.2 µM)
Procedure, shortened: (§1)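 Relative viability equals treated-well nuclei counts divided by vehicle-well nuclei counts. Counts came from 4× images of lung cancer cell lines grown in 1536-well plates for 5 days after pin-tool dosing on the day after seeding. Dosing used one drug alone or a fixed anchor-drug dose plus five library-drug doses (not always all listed) in √10 steps, and values are medians of duplicate plates.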

YM155 + OSI-027 = compound: COCC[n+]1c2c(n(Cc3cnccn3)c1C)C(=O)c1ccccc1C2=O [YM155] + COc1cccc2cc(-c3nc([C@H]4CC[C@H](C(=O)O)CC4)n4ncnc(N)c34)[nH]c12 [OSI-027] (partner 0.5 µM)
Procedure, shortened: as §1

YM155 + Decitabine = compound: COCC[n+]1c2c(n(Cc3cnccn3)c1C)C(=O)c1ccccc1C2=O [YM155] + Nc1ncn([C@H]2C[C@H](O)[C@@H](CO)O2)c(=O)n1 [Decitabine] (partner 2 µM)
Procedure, shortened: as §1

YM155 + Olaparib = compound: COCC[n+]1c2c(n(Cc3cnccn3)c1C)C(=O)c1ccccc1C2=O [YM155] + O=C(c1cc(Cc2n[nH]c(=O)c3ccccc23)ccc1F)N1CCN(C(=O)C2CC2)CC1 [Olaparib] (partner 8 µM)
Procedure, shortened: as §1

Work on 201T yielded a relative viability (Quizartinib + Pemetrexed; first compound 0.001 µM) of 0.272, a relative viability (Quizartinib + Pemetrexed; first compound 0.003162 µM) of 0.311 and a relative viability (Quizartinib + Pemetrexed; first compound 0.01 µM) of 0.306. It also gave a relative viability (Quizartinib + Pemetrexed; first compound 0.03162 µM) of 0.302, a relative viability (Quizartinib + Pemetrexed; first compound 0.1 µM) of 0.365 and a relative viability (YM155 + OSI-027; first compound 0.002 µM) of 0.629. For the same cell line, the relative viability (YM155 + OSI-027; first compound 0.006325 µM) was 0.696, the relative viability (YM155 + OSI-027; first compound 0.02 µM) was 0.751 and the relative viability (YM155 + OSI-027; first compound 0.06325 µM) was 0.754. For the same cell line, the relative viability (YM155 + Decitabine; first compound 0.002 µM) was 0.825, the relative viability (YM155 + Decitabine; first compound 0.006325 µM) was 0.838 and the relative viability (YM155 + Decitabine; first compound 0.02 µM) was 0.851. The relative viability (YM155 + Decitabine; first compound 0.06325 µM) was 0.88, the relative viability (YM155 + Olaparib; first compound 0.002 µM) was 0.813 and the relative viability (YM155 + Olaparib; first compound 0.006325 µM) was 0.845. For the same cell line, the relative viability (YM155 + Olaparib; first compound 0.02 µM) was 0.826 and the relative viability (YM155 + Olaparib; first compound 0.06325 µM) was 0.874.

Work on A549 yielded a relative viability (YM155 + Decitabine; first compound 0.002 µM) of 0.413, a relative viability (YM155 + Decitabine; first compound 0.006325 µM) of 0.215 and a relative viability (YM155 + Decitabine; first compound 0.02 µM) of 0.29. It also gave a relative viability (YM155 + Decitabine; first compound 0.06325 µM) of 0.24, a relative viability (YM155 + Olaparib; first compound 0.002 µM) of 0.232 and a relative viability (YM155 + Olaparib; first compound 0.006325 µM) of 0.313. The relative viability (YM155 + Olaparib; first compound 0.02 µM) was 0.376 and the relative viability (YM155 + Olaparib; first compound 0.06325 µM) was 0.324.

A-427 gave a relative viability (Quizartinib + Pemetrexed; first compound 0.001 µM) of 0.781, a relative viability (Quizartinib + Pemetrexed; first compound 0.003162 µM) of 0.96 and a relative viability (Quizartinib + Pemetrexed; first compound 0.01 µM) of 0.84. The relative viability (Quizartinib + Pemetrexed; first compound 0.03162 µM) was 0.884, the relative viability (Quizartinib + Pemetrexed; first compound 0.1 µM) was 0.954 and the relative viability (YM155 + OSI-027; first compound 0.002 µM) was 0.478. For the same cell line, the relative viability (YM155 + OSI-027; first compound 0.006325 µM) was 0.562, the relative viability (YM155 + OSI-027; first compound 0.02 µM) was 0.597 and the relative viability (YM155 + OSI-027; first compound 0.06325 µM) was 0.458. It also gave a relative viability (YM155 + Decitabine; first compound 0.002 µM) of 0.525, a relative viability (YM155 + Decitabine; first compound 0.006325 µM) of 0.567 and a relative viability (YM155 + Decitabine; first compound 0.02 µM) of 0.571. For the same cell line, the relative viability (YM155 + Decitabine; first compound 0.06325 µM) was 0.466, the relative viability (YM155 + Olaparib; first compound 0.002 µM) was 0.735 and the relative viability (YM155 + Olaparib; first compound 0.006325 µM) was 0.556. The relative viability (YM155 + Olaparib; first compound 0.02 µM) was 0.714 and the relative viability (YM155 + Olaparib; first compound 0.06325 µM) was 0.294.

ABC-1 was tested, and the relative viability (YM155 + OSI-027; first compound 0.002 µM) was 0.491, the relative viability (YM155 + OSI-027; first compound 0.006325 µM) was 0.477 and the relative viability (YM155 + OSI-027; first compound 0.02 µM) was 0.282. The relative viability (YM155 + OSI-027; first compound 0.06325 µM) was 0.154, the relative viability (YM155 + Decitabine; first compound 0.006325 µM) was 0.84 and the relative viability (YM155 + Decitabine; first compound 0.02 µM) was 0.383. It also gave a relative viability (YM155 + Decitabine; first compound 0.06325 µM) of 0.308, a relative viability (YM155 + Olaparib; first compound 0.006325 µM) of 0.51 and a relative viability (YM155 + Olaparib; first compound 0.02 µM) of 0.28. For the same cell line, the relative viability (YM155 + Olaparib; first compound 0.06325 µM) was 0.261.

In the case of BEN, the relative viability (Quizartinib + Pemetrexed; first compound 0.001 µM) is reported as 0.739, the relative viability (Quizartinib + Pemetrexed; first compound 0.003162 µM) is reported as 0.959 and the relative viability (Quizartinib + Pemetrexed; first compound 0.01 µM) is reported as 0.681. The relative viability (Quizartinib + Pemetrexed; first compound 0.03162 µM) was 0.659, the relative viability (Quizartinib + Pemetrexed; first compound 0.1 µM) was 0.78 and the relative viability (YM155 + OSI-027; first compound 0.002 µM) was 0.268. It also gave a relative viability (YM155 + OSI-027; first compound 0.006325 µM) of 0.311, a relative viability (YM155 + OSI-027; first compound 0.02 µM) of 0.304 and a relative viability (YM155 + OSI-027; first compound 0.06325 µM) of 0.29. It also gave a relative viability (YM155 + Decitabine; first compound 0.002 µM) of 0.684, a relative viability (YM155 + Decitabine; first compound 0.006325 µM) of 0.712 and a relative viability (YM155 + Decitabine; first compound 0.02 µM) of 0.718. It also gave a relative viability (YM155 + Decitabine; first compound 0.06325 µM) of 0.741, a relative viability (YM155 + Olaparib; first compound 0.002 µM) of 0.994 and a relative viability (YM155 + Olaparib; first compound 0.006325 µM) of 1.06. The relative viability (YM155 + Olaparib; first compound 0.02 µM) was 1.11 and the relative viability (YM155 + Olaparib; first compound 0.06325 µM) was 1.08.

Work on CAL-12T yielded a relative viability (Quizartinib + Pemetrexed; first compound 0.001 µM) of 1.01, a relative viability (Quizartinib + Pemetrexed; first compound 0.003162 µM) of 1.01 and a relative viability (Quizartinib + Pemetrexed; first compound 0.01 µM) of 1.36. For the same cell line, the relative viability (Quizartinib + Pemetrexed; first compound 0.03162 µM) was 0.998, the relative viability (Quizartinib + Pemetrexed; first compound 0.1 µM) was 1.49 and the relative viability (YM155 + OSI-027; first compound 0.002 µM) was 0.657. For the same cell line, the relative viability (YM155 + OSI-027; first compound 0.006325 µM) was 0.619, the relative viability (YM155 + OSI-027; first compound 0.02 µM) was 0.746 and the relative viability (YM155 + OSI-027; first compound 0.06325 µM) was 0.529. The relative viability (YM155 + Olaparib; first compound 0.002 µM) was 0.782, the relative viability (YM155 + Olaparib; first compound 0.006325 µM) was 0.735 and the relative viability (YM155 + Olaparib; first compound 0.02 µM) was 0.625. For the same cell line, the relative viability (YM155 + Olaparib; first compound 0.06325 µM) was 0.331.

COR-L23 showed a relative viability (Quizartinib + Pemetrexed; first compound 0.001 µM) of 0.193, a relative viability (Quizartinib + Pemetrexed; first compound 0.003162 µM) of 0.189 and a relative viability (Quizartinib + Pemetrexed; first compound 0.01 µM) of 0.208. For the same cell line, the relative viability (Quizartinib + Pemetrexed; first compound 0.03162 µM) was 0.194, the relative viability (Quizartinib + Pemetrexed; first compound 0.1 µM) was 0.211 and the relative viability (YM155 + OSI-027; first compound 0.002 µM) was 0.692. For the same cell line, the relative viability (YM155 + OSI-027; first compound 0.006325 µM) was 0.735, the relative viability (YM155 + OSI-027; first compound 0.02 µM) was 0.488 and the relative viability (YM155 + OSI-027; first compound 0.06325 µM) was 0.132. The relative viability (YM155 + Decitabine; first compound 0.002 µM) was 0.439, the relative viability (YM155 + Decitabine; first compound 0.006325 µM) was 0.315 and the relative viability (YM155 + Decitabine; first compound 0.02 µM) was 0.317. The relative viability (YM155 + Decitabine; first compound 0.06325 µM) was 0.169, the relative viability (YM155 + Olaparib; first compound 0.002 µM) was 0.322 and the relative viability (YM155 + Olaparib; first compound 0.006325 µM) was 0.298. It also gave a relative viability (YM155 + Olaparib; first compound 0.02 µM) of 0.187 and a relative viability (YM155 + Olaparib; first compound 0.06325 µM) of 0.147.

COR-L 105 showed a relative viability (Quizartinib + Pemetrexed; first compound 0.001 µM) of 0.985, a relative viability (Quizartinib + Pemetrexed; first compound 0.003162 µM) of 1.18 and a relative viability (Quizartinib + Pemetrexed; first compound 0.01 µM) of 1.29. It also gave a relative viability (Quizartinib + Pemetrexed; first compound 0.1 µM) of 1.3, a relative viability (YM155 + OSI-027; first compound 0.002 µM) of 0.574 and a relative viability (YM155 + OSI-027; first compound 0.006325 µM) of 0.694. For the same cell line, the relative viability (YM155 + OSI-027; first compound 0.02 µM) was 0.762, the relative viability (YM155 + OSI-027; first compound 0.06325 µM) was 0.54 and the relative viability (YM155 + Decitabine; first compound 0.002 µM) was 0.552. It also gave a relative viability (YM155 + Decitabine; first compound 0.006325 µM) of 0.671, a relative viability (YM155 + Decitabine; first compound 0.02 µM) of 0.519 and a relative viability (YM155 + Decitabine; first compound 0.06325 µM) of 0.442. The relative viability (YM155 + Olaparib; first compound 0.002 µM) was 0.584, the relative viability (YM155 + Olaparib; first compound 0.006325 µM) was 0.715 and the relative viability (YM155 + Olaparib; first compound 0.02 µM) was 0.72. For the same cell line, the relative viability (YM155 + Olaparib; first compound 0.06325 µM) was 0.538.

In the case of Calu-6, the relative viability (YM155 + Olaparib; first compound 0.002 µM) is reported as 0.544, the relative viability (YM155 + Olaparib; first compound 0.006325 µM) is reported as 0.586 and the relative viability (YM155 + Olaparib; first compound 0.02 µM) is reported as 0.294. The relative viability (YM155 + Olaparib; first compound 0.06325 µM) was 0.129.

In the case of ChaGo-K-1, the relative viability (Quizartinib + Pemetrexed; first compound 0.003162 µM) is reported as 0.247, the relative viability (Quizartinib + Pemetrexed; first compound 0.01 µM) is reported as 0.264 and the relative viability (Quizartinib + Pemetrexed; first compound 0.03162 µM) is reported as 0.26. It also gave a relative viability (Quizartinib + Pemetrexed; first compound 0.1 µM) of 0.264, a relative viability (YM155 + OSI-027; first compound 0.002 µM) of 0.474 and a relative viability (YM155 + OSI-027; first compound 0.006325 µM) of 0.536. It also gave a relative viability (YM155 + OSI-027; first compound 0.02 µM) of 0.549, a relative viability (YM155 + OSI-027; first compound 0.06325 µM) of 0.662 and a relative viability (YM155 + Decitabine; first compound 0.002 µM) of 0.473. The relative viability (YM155 + Decitabine; first compound 0.006325 µM) was 0.563, the relative viability (YM155 + Decitabine; first compound 0.02 µM) was 0.515 and the relative viability (YM155 + Decitabine; first compound 0.06325 µM) was 0.545. For the same cell line, the relative viability (YM155 + Olaparib; first compound 0.002 µM) was 0.364, the relative viability (YM155 + Olaparib; first compound 0.006325 µM) was 0.38 and the relative viability (YM155 + Olaparib; first compound 0.02 µM) was 0.43. For the same cell line, the relative viability (YM155 + Olaparib; first compound 0.06325 µM) was 0.385.

EBC-1 showed a relative viability (YM155 + Olaparib; first compound 0.002 µM) of 0.819, a relative viability (YM155 + Olaparib; first compound 0.006325 µM) of 0.743 and a relative viability (YM155 + Olaparib; first compound 0.02 µM) of 0.799. For the same cell line, the relative viability (YM155 + Olaparib; first compound 0.06325 µM) was 0.622.
